Results from patent publication US20240000767A1, “COMBINATION OF AN ALPHA2-ADRENOCEPTOR SUBTYPE C (ALPHA-2C) ANTAGONIST WITH A TASK1/3 CHANNEL BLOCKER FOR THE TREATMENT OF SLEEP APNEA” (Bayer Aktiengesellschaft, priority 2020, published 2024).

Tested on: anaesthetized, spontaneously breathing pigs
Assay: Pig model of obstructive sleep apnea (OSA): upper airway collapsibility under negative pressure
Assay type: in vivo, German Landrace pigs
Details: for time points at which upper airway collapsibility was inhibited at all negative pressures of −50, −100 and −150 cm H2O in all pigs / upper airway collapsibility: alone
Source text: B-3 Animal Model of Obstructive Sleep Apnoea in the Pig
Using negative pressure, it is possible to induce collapse and thus obstruction of the upper respiratory tract in anesthetized, spontaneously breathing pigs [Wirth et al., Sleep 36, 699-708 (2013)].
German Landrace pigs are used for the model. The pigs are anesthetized and tracheotomized. One cannula each is inserted into the rostral and the caudal part of the trachea. Using a T connector, the rostral cannula is connected on the one hand to a device generating negative pressures and on the other hand to the caudal cannula. Using a T connector, the caudal cannula is connected to the rostral cannula and to a tube which allows spontaneous breathing circumventing the upper respiratory tract. By appropriate closing and opening of the tubes it is thus possible for the pig to change from normal nasal breathing to breathing via the caudal cannula during the time when the upper respiratory tract is isolated and connected to the device for generating negative pressures. The muscle activity of the musculus genioglossus is recorded by electromyogram (EMG).
(§1) At certain points in time, the collapsibility of the upper respiratory tract is tested by having the pig breathe via the caudal cannula and applying negative pressures of −50, −100 and −150 cm water head (cmH2O) to the upper respiratory tract. This causes the upper respiratory tract to collapse, which manifests itself in an interruption of the airflow and a pressure drop in the tube system. This test is conducted prior to the administration of the test substance and at certain intervals after the administration of the test substance. An appropriately effective test substance can prevent this collapse of the respiratory tract in the inspiratory phase.
Administration of the test substance can be intranasal, intravenous, subcutaneous, intraperitoneal, intraduodenal or intragastral.
The therapeutic potential of the combination of an α2-Adrenoceptor subtype C (alpha-2C) antagonists with a TASK⅓ channel blocker according to the present invention in sleep apnea can be assessed preclinically in a pig model of obstructive sleep apnea (OSA).
Using negative pressure, it is possible to induce collapse and thus obstruction of the upper respiratory tract in anaesthetized, spontaneously breathing pigs (Wirth K. J. et al., Sleep 36(5) (2013) pp. 699-708).
German Landrace pigs are used for the model. The pigs are anaesthetized and tracheotomized. Two tracheal cannulas are inserted into the trachea, one into the rostral part and the other into the caudal part of the trachea. Using a connection piece, the rostral cannula is connected to a tube to the negative pressure device and to the distal tracheal cannula. The distal tracheal cannula is additionally connected to a tube with an open end to atmosphere via a connection piece that served for free tracheal breathing, circumventing the upper airway. By appropriate opening and clamping of those tubes breathing can be switched from nasal breathing to breathing through the caudal tracheal cannula, circumventing the upper airway, and the (isolated) upper airway can be connected to the negative pressure device, causing airflow in the inspiratory direction.
as §1, with “(cm H2O)” for “(cmH2O)”

[1] = 15 μg/kg i.v. bolus then 5 μg/kg/h i.v. infusion for four hours from 0 min, time 0 min
[2] = 15 μg/kg i.v. bolus then 5 μg/kg/h i.v. infusion for four hours from 0 min, time 30 min
[3] = 15 μg/kg i.v. bolus then 5 μg/kg/h i.v. infusion for four hours from 0 min, time 60 min
[4] = 15 μg/kg i.v. bolus then 5 μg/kg/h i.v. infusion for four hours from 0 min, time 90 min
[5] = 15 μg/kg i.v. bolus then 5 μg/kg/h i.v. infusion for four hours from 0 min, time 120 min
[6] = 0.3 μg intranasal at 0 min, time 0 min
[7] = 0.3 μg intranasal at 0 min, time 10 min
[8] = 0.3 μg intranasal at 0 min, time 30 min
[9] = 0.3 μg intranasal at 0 min, time 60 min
[10] = 0.3 μg intranasal at 0 min, time 90 min
[11] = 0.01 mg/kg intraduodenal at 0 min, time 0 min
[12] = 0.01 mg/kg intraduodenal at 0 min, time 30 min
[13] = 0.01 mg/kg intraduodenal at 0 min, time 60 min
[14] = 0.01 mg/kg intraduodenal at 0 min, time 90 min
[15] = 0.01 mg/kg intraduodenal at 0 min, time 120 min
[16] = 0.01 mg/kg intraduodenal at 0 min, time 150 min
[17] = 0.01 mg/kg intraduodenal at 0 min, time 180 min
[18] = 0.01 mg/kg intraduodenal at 0 min, time 210 min
[19] = 0.01 mg/kg intraduodenal at 0 min, time 230 min
[20] = second set, 0.01 mg/kg intraduodenal at 0 min, time 0 min
[21] = second set, 0.01 mg/kg intraduodenal at 0 min, time 30 min
[22] = second set, 0.01 mg/kg intraduodenal at 0 min, time 60 min
[23] = second set, 0.01 mg/kg intraduodenal at 0 min, time 90 min
[24] = second set, 0.01 mg/kg intraduodenal at 0 min, time 120 min
[25] = second set, 0.01 mg/kg intraduodenal at 0 min, time 150 min
[26] = second set, 0.01 mg/kg intraduodenal at 0 min, time 180 min

## COCC1CCCN(C2CCN(c3ncc(C(=O)NCc4ncc(F)cc4F)s3)CC2)C1 (stereo not shown)
[1]
  Percent pigs without collaps −50 cm H2O: 0%
  Percent pigs without collaps −100 cm H2O: 0%
  Percent pigs without collaps −150 cm H2O: 0%
[2]
  Percent pigs without collaps −50 cm H2O: 0%
  Percent pigs without collaps −100 cm H2O: 0%
  Percent pigs without collaps −150 cm H2O: 0%
[3]
  Percent pigs without collaps −50 cm H2O: 0%
  Percent pigs without collaps −100 cm H2O: 0%
  Percent pigs without collaps −150 cm H2O: 0%
[4]
  Percent pigs without collaps −50 cm H2O: 50%
  Percent pigs without collaps −100 cm H2O: 50%
  Percent pigs without collaps −150 cm H2O: 50%
[5]
  Percent pigs without collaps −50 cm H2O: 0%
  Percent pigs without collaps −100 cm H2O: 0%
  Percent pigs without collaps −150 cm H2O: 0%
Third set, 15 μg/kg i.v. bolus followed by i.v. infusion of 5 μg/kg/h for four hours
  time points at which upper airway collapsibility was inhibited at all negative pressures of −50, −100 and −150 cm H2O in all pigs: at no time point

## COc1ccc(Cl)c(C(=O)N2C3CCC2CN(Cc2c(-c4ccc(C(C)C)cc4)nc4ncccn24)C3)n1 [(3-chloro-6-methoxypyridin-2-yl)(3-{[2-(4-isopropylphenyl)imidazo[1,2-a]pyrimidin-3-yl]methyl}-3,8-diazabicyclo[3.2.1]oct-8-yl)methanone]
[6]
  Percent pigs without collaps −50 cm H2O: 0%
  Percent pigs without collaps −100 cm H2O: 0%
  Percent pigs without collaps −150 cm H2O: 0%
[7]
  Percent pigs without collaps −50 cm H2O: 33%
  Percent pigs without collaps −100 cm H2O: 33%
  Percent pigs without collaps −150 cm H2O: 0%
[8]
  Percent pigs without collaps −50 cm H2O: 0%
  Percent pigs without collaps −100 cm H2O: 0%
  Percent pigs without collaps −150 cm H2O: 0%
[9]
  Percent pigs without collaps −50 cm H2O: 0%
  Percent pigs without collaps −100 cm H2O: 0%
  Percent pigs without collaps −150 cm H2O: 0%
[10]
  Percent pigs without collaps −50 cm H2O: 0%
  Percent pigs without collaps −100 cm H2O: 0%
  Percent pigs without collaps −150 cm H2O: 0%

## COc1cccc(C(=O)N2CCN(Cc3c(-c4ccc(Cl)cc4)nc4ccccn34)CC2)n1 [(4-{[2-(4-chlorophenyl)imidazo[1,2-a]pyridin-3-yl]methyl}piperazin-1-yl)(6-methoxypyridin-2-yl)methanone]
[6]
  Percent pigs without collaps −50 cm H2O: 0%
  Percent pigs without collaps −100 cm H2O: 0%
  Percent pigs without collaps −150 cm H2O: 0%
[7]
  Percent pigs without collaps −50 cm H2O: 0%
  Percent pigs without collaps −100 cm H2O: 0%
  Percent pigs without collaps −150 cm H2O: 0%
[8]
  Percent pigs without collaps −50 cm H2O: 0%
  Percent pigs without collaps −100 cm H2O: 0%
  Percent pigs without collaps −150 cm H2O: 0%
[9]
  Percent pigs without collaps −50 cm H2O: 0%
  Percent pigs without collaps −100 cm H2O: 0%
  Percent pigs without collaps −150 cm H2O: 0%

## C[C@@H]1CCCN(C2CCN(c3ncc(C(=O)NCc4ncc(F)cc4F)s3)CC2)C1 [N-[(3,5-difluoropyridin-2-yl)methyl]-2-[(3R)-3-methyl[1,4′-bipiperidin]-1′-yl]-1,3-thiazole-5-carboxamide]
[11]
  Percent pigs without collaps −50 cm H2O: 0%
  Percent pigs without collaps −100 cm H2O: 0%
  Percent pigs without collaps −150 cm H2O: 0%
[12]
  Percent pigs without collaps −50 cm H2O: 0%
  Percent pigs without collaps −100 cm H2O: 0%
  Percent pigs without collaps −150 cm H2O: 0%
[13]
  Percent pigs without collaps −50 cm H2O: 0%
  Percent pigs without collaps −100 cm H2O: 0%
  Percent pigs without collaps −150 cm H2O: 0%
[14]
  Percent pigs without collaps −50 cm H2O: 33%
  Percent pigs without collaps −100 cm H2O: 33%
  Percent pigs without collaps −150 cm H2O: 33%
[15]
  Percent pigs without collaps −50 cm H2O: 100%
  Percent pigs without collaps −100 cm H2O: 100%
  Percent pigs without collaps −150 cm H2O: 67%
[16]
  Percent pigs without collaps −50 cm H2O: 100%
  Percent pigs without collaps −100 cm H2O: 100%
  Percent pigs without collaps −150 cm H2O: 100%
[17]
  Percent pigs without collaps −50 cm H2O: 100%
  Percent pigs without collaps −100 cm H2O: 100%
  Percent pigs without collaps −150 cm H2O: 100%
[18]
  Percent pigs without collaps −50 cm H2O: 67%
  Percent pigs without collaps −100 cm H2O: 33%
  Percent pigs without collaps −150 cm H2O: 0%
[19]
  Percent pigs without collaps −50 cm H2O: 0%
  Percent pigs without collaps −100 cm H2O: 0%
  Percent pigs without collaps −150 cm H2O: 0%
0.01 mg/kg intraduodenal, 230 min after administration, all pigs
  upper airway collapsibility: induced at all negative pressures
0.01 mg/kg intraduodenal, first set
  time points at which upper airway collapsibility was inhibited at all negative pressures of −50, −100 and −150 cm H2O in all pigs: only at time point 150 and 180 min
0.01 mg/kg intraduodenal, second set
  time points at which upper airway collapsibility was inhibited at all negative pressures of −50, −100 and −150 cm H2O in all pigs: at no time point
[20]
  Percent pigs without collaps −50 cm H2O: 0%
  Percent pigs without collaps −100 cm H2O: 0%
  Percent pigs without collaps −150 cm H2O: 0%
[21]
  Percent pigs without collaps −50 cm H2O: 0%
  Percent pigs without collaps −100 cm H2O: 0%
  Percent pigs without collaps −150 cm H2O: 0%
[22]
  Percent pigs without collaps −50 cm H2O: 50%
  Percent pigs without collaps −100 cm H2O: 0%
  Percent pigs without collaps −150 cm H2O: 0%
[23]
  Percent pigs without collaps −50 cm H2O: 100%
  Percent pigs without collaps −100 cm H2O: 50%
  Percent pigs without collaps −150 cm H2O: 50%
[24]
  Percent pigs without collaps −50 cm H2O: 100%
  Percent pigs without collaps −100 cm H2O: 100%
  Percent pigs without collaps −150 cm H2O: 0%
[25]
  Percent pigs without collaps −50 cm H2O: 50%
  Percent pigs without collaps −100 cm H2O: 0%
  Percent pigs without collaps −150 cm H2O: 0%
[26]
  Percent pigs without collaps −50 cm H2O: 0%
  Percent pigs without collaps −100 cm H2O: 0%
  Percent pigs without collaps −150 cm H2O: 0%
Second set, 0.01 mg/kg intraduodenal, 90 min after administration
  upper airway collapsibility: only inhibited at negative pressures of −50 cm head
Second set, 0.01 mg/kg intraduodenal, 120 min after administration
  upper airway collapsibility: only inhibited at negative pressures of −50 and −100 cm head
Second set, 0.01 mg/kg intraduodenal, 180 min after administration, all pigs
  upper airway collapsibility: induced at all negative pressures
